Assays:
[1] = target: T1, Cholecystokinin receptor type A (Homo sapiens, UniProt P32238)
T1 sequence (P32238 whole entry): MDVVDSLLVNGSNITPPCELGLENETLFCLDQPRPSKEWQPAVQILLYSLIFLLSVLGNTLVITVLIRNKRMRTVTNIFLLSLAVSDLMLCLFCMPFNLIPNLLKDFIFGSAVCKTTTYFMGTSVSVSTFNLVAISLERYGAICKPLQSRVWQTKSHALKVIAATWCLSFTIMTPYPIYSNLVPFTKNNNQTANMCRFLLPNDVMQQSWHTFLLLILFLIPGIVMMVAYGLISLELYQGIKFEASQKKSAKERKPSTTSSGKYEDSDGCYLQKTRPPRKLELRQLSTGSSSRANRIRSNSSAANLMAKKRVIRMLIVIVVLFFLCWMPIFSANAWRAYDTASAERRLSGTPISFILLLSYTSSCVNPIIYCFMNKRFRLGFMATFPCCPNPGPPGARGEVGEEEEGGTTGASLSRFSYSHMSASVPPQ

[2] = target: Neuronal acetylcholine receptor subunit alpha-4 (Homo sapiens, UniProt P43681)
[3] = target: 5-hydroxytryptamine receptor 2B (Homo sapiens, UniProt P41595); format: functional, cell-based
[4] = target: T2, Progesterone receptor (Homo sapiens, UniProt P06401); format: functional
T2 sequence (P06401 whole entry): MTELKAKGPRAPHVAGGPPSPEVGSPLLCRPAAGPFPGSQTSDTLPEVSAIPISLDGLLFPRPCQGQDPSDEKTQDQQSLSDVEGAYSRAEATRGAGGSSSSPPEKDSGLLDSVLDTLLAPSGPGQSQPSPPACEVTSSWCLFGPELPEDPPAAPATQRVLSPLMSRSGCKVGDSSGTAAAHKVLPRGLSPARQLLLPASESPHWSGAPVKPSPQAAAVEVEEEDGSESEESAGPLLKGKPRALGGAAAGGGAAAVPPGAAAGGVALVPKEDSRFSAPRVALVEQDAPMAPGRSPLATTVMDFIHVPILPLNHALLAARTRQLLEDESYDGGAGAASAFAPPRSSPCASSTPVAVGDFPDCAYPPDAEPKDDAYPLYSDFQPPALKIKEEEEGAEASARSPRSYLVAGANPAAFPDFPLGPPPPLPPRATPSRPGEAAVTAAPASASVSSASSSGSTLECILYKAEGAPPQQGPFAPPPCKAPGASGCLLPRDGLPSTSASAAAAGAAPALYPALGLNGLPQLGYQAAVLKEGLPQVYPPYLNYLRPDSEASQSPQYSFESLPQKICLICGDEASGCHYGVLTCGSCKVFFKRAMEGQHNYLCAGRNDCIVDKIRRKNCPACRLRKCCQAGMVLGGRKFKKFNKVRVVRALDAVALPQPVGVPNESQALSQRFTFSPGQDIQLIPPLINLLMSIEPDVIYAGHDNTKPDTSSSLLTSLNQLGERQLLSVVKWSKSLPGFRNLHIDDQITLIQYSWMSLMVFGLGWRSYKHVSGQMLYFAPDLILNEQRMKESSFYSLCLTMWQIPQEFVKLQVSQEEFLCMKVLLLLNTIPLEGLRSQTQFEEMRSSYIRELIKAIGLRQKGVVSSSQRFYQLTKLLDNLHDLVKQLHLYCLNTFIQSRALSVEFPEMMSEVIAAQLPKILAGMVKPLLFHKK

[5] = target: T3, Equilibrative nucleoside transporter 1 (Homo sapiens, UniProt Q99808)
T3 sequence (Q99808 whole entry): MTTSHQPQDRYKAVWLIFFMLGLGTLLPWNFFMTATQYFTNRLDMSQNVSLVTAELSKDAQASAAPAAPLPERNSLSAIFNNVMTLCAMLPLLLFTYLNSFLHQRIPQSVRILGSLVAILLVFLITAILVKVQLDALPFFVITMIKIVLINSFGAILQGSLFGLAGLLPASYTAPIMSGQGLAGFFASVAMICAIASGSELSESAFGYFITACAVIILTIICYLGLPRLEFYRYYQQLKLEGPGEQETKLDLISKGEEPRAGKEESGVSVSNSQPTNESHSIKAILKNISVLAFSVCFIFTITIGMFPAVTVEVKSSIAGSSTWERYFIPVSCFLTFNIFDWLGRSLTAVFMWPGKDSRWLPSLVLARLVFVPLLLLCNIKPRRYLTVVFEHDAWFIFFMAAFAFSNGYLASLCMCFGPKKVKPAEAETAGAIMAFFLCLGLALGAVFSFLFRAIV

[6] = target: Sodium-dependent dopamine transporter (Homo sapiens, UniProt Q01959)
[7] = target: T4, Amine oxidase [flavin-containing] A (Homo sapiens, UniProt P21397); format: functional
T4 sequence (P21397 whole entry): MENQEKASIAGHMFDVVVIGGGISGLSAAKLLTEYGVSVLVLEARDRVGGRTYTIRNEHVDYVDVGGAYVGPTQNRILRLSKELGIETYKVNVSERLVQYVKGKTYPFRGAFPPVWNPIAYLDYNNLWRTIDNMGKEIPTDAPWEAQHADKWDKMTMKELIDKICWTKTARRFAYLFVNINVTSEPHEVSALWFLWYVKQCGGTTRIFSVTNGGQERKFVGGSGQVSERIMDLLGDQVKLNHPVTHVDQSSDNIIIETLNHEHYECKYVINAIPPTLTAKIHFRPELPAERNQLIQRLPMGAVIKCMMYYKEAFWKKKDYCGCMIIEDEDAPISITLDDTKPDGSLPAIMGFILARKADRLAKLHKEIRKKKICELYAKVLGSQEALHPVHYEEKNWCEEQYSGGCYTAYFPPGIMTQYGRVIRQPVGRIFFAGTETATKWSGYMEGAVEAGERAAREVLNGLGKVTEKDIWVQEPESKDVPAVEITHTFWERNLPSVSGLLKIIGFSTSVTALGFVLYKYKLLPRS

[8] = target: Gamma-aminobutyric acid receptor subunit alpha-1 (Rattus norvegicus, UniProt P62813)
[9] = target: T2, Progesterone receptor
Note: assay procedure not described here.

Chain of 5-hydroxytryptamine receptor 2B (P41595 whole entry): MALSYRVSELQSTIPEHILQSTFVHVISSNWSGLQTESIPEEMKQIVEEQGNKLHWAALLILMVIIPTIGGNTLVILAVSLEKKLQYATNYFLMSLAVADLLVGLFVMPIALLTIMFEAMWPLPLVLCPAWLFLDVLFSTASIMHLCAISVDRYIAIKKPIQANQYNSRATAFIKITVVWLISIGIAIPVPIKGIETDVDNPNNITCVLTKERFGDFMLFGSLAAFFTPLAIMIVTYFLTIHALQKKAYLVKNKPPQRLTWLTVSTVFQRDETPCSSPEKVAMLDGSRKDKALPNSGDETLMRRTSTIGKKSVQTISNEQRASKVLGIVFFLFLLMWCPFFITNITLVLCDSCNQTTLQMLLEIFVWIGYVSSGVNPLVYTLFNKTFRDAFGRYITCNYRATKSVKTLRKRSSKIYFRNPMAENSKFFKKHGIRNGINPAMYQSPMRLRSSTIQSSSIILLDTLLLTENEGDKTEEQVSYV
Chain of Gamma-aminobutyric acid receptor subunit alpha-1 (P62813 whole entry): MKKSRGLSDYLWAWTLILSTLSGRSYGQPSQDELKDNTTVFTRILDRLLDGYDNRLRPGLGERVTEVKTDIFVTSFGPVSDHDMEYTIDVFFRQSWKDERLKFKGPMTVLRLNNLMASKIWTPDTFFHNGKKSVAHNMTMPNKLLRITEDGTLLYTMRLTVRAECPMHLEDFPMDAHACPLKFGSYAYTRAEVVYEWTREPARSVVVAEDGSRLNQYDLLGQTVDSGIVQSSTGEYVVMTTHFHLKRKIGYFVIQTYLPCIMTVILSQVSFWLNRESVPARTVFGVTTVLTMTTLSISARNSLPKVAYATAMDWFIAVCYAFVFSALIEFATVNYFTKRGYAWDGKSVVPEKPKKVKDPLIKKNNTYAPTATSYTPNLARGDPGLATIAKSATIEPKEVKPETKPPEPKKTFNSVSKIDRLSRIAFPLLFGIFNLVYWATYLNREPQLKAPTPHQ
Chain of Neuronal acetylcholine receptor subunit alpha-4 (P43681 whole entry): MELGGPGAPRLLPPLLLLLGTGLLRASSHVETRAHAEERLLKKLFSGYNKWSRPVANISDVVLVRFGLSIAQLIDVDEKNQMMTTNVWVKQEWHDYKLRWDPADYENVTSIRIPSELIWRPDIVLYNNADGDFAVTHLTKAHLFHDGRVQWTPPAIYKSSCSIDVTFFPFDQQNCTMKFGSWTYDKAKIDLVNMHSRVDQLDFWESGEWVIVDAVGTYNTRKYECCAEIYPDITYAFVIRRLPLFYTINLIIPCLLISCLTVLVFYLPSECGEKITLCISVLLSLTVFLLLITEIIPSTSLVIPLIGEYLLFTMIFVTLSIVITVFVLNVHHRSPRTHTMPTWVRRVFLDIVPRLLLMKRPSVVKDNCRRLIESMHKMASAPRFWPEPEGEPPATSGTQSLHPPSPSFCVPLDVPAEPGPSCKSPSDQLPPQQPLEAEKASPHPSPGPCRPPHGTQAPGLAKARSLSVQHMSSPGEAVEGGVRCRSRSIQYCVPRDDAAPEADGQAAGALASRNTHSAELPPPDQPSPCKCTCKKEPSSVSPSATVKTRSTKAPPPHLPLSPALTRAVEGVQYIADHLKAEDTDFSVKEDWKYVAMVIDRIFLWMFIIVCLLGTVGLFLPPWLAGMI
Chain of Sodium-dependent dopamine transporter (Q01959 whole entry): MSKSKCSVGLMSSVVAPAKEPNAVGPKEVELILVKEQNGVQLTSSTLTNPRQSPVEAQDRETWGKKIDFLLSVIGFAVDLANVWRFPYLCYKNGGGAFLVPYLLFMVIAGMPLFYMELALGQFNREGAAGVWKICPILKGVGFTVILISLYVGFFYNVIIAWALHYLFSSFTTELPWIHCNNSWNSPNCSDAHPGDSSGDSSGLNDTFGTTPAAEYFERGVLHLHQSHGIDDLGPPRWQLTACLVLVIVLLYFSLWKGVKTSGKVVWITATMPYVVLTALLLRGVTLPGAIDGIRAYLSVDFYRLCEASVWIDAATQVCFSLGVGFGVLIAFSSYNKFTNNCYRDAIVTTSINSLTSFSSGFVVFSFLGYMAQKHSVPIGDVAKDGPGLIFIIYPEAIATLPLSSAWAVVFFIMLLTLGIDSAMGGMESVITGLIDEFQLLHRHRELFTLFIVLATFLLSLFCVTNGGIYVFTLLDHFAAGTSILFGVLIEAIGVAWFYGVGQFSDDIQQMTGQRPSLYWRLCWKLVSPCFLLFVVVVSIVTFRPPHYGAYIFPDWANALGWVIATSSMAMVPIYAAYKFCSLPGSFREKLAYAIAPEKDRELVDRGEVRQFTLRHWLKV

| SMILES | AC50 [1] [µM] | AC50 [2] [µM] | AC50 [3] [µM] | AC50 [4] [µM] | AC50 [5] [µM] | AC50 [6] [µM] | AC50 [7] [µM] | AC50 [8] [µM] | AC50 [9] [µM] |
| --- | --- | --- | --- | --- | --- | --- | --- | --- | --- |
| O=C1NC(=O)C(c2ccccc2)(c2ccccc2)N1 [PHENYTOIN] | > 30 | > 30 | > 30 | > 30 | > 30 | > 30 | > 30 | – | – |
| CC(C)C[C@H](CN)CC(=O)O [PREGABALIN] | > 30 | > 30 | 28 | > 30 | > 30 | > 30 | > 30 | – | – |
| CCOc1cc(CC(=O)N[C@@H](CC(C)C)c2ccccc2N2CCCCC2)ccc1C(=O)O [REPAGLINIDE] | > 30 | > 30 | > 10 | > 30 | > 30 | > 30 | > 30 | – | – |
| NC(=O)c1ncn([C@@H]2O[C@H](CO)[C@@H](O)[C@H]2O)n1 [RIBAVIRIN] | > 10 | > 10 | > 10 | > 10 | > 30 | > 10 | > 10 | – | – |
| CCCN(CCC)CCc1cccc2c1CC(=O)N2 [ROPINIROLE] | > 30 | > 30 | 2.76 | > 30 | > 30 | > 30 | > 30 | – | – |
| CCCN(CCc1cccs1)[C@H]1CCc2c(O)cccc2C1 [ROTIGOTINE] | > 30 | > 30 | 0.43 | > 30 | 29 | 1.3 | > 30 | – | – |
| CC[C@H]1OC(=O)[C@H](C)[C@@H](O[C@H]2C[C@@](C)(OC)[C@@H](O)[C@H](C)O2)[C@H](C)[C@@H](O[C@@H]2O[C@H](C)C[C@H](N(C)C)[C@H]2O)[C@](C)(O)C[C@@H](C)/C(=N\OCOCCOC)[C@H](C)[C@@H](O)[C@]1(C)O [ROXITHROMYCIN] | > 30 | > 30 | > 30 | > 30 | > 30 | > 30 | > 30 | – | – |
| CC(C)N(CCCCOCC(=O)NS(C)(=O)=O)c1cnc(-c2ccccc2)c(-c2ccccc2)n1 [SELEXIPAG] | > 30 | > 30 | > 30 | > 30 | > 30 | > 30 | > 30 | – | – |
| CCCCNc1ccc(C(=O)OCCN(C)C)cc1 [TETRACAINE] | > 30 | > 10 | > 10 | – | > 30 | > 10 | 0.97 | > 30 | > 30 |
| Cn1c(=O)c2[nH]cnc2n(C)c1=O [THEOPHYLLINE] | > 30 | > 10 | > 10 | – | > 30 | > 30 | > 10 | > 30 | > 30 |
| CN1CCN(CCCN2c3ccccc3Sc3ccc(S(=O)(=O)N(C)C)cc32)CC1 [THIOPROPERAZINE] | – | – | > 30 | – | – | – | > 30 | > 30 | > 30 |
| Cc1cc(CC(=O)O)n(C)c1C(=O)c1ccc(Cl)cc1 [ZOMEPIRAC] | > 30 | > 30 | > 30 | > 30 | > 30 | > 30 | > 30 | – | – |

— ChEMBL document CHEMBL5291721, “A preclinical secondary pharmacology resource illuminates target-adverse drug reaction associations of marketed drugs” (Nat Commun, 2023)
